Test results taken from ChEMBL document CHEMBL1151182, “Phytochemical and larvicidal studies on Stemona curtisii: structure of a new pyrido[1,2-a]azepine Stemona alkaloid” (2004).
In brackets after ≈: the same amount, converted by molar mass.

Each compound was assayed on Anopheles minimus (assay: Larvicidal activity in Anopheles minimus HO by WHO method).
Type: functional

Row | SMILES | LC50
1 | COC1=C(C)C(=O)O/C1=C1\O[C@]23CCCN4[C@H]([C@@H]5C[C@H](C)C(=O)O5)[C@H](C[C@H]4[C@H]2[C@@H]1C)O3 [OXYPROTOSTEMONINE] | 4 µg/mL (≈ 9.27 µM)
2 | CC[C@H](O)[C@@H]1CC[C@@H]2O[C@@]34CCCN1[C@@H]2[C@H]3[C@H](C)/C(=C1/OC(=O)C(C)=C1OC)O4 [STEMOCURTISINOL] | 39 µg/mL (≈ 96.2 µM)
3 | COC1=C(C)C(=O)O/C1=C1\O[C@@]23CCCN4CCC[C@H](O2)[C@H]4[C@H]3[C@@H]1C [STEMOCURTISINE] | 18 µg/mL (≈ 51.8 µM)
